Source: patent publication US8598344B2, “CDKI pathway inhibitors and uses thereof” (Senex Biotechnology, priority 2009, dated 2013)
pIC50: −log10 of the molar value.

Key:
CDK7 = CDK7 (Homo sapiens, UniProt P50613); assay: KinomeScan competition binding assay; parameters: purchased KinomeScan, a division of Ambit Biosciences; details: 10 μM compound
Excerpt: This similarity led us to test SNX14 for the ability to inhibit 285 kinases, using the services of KinaseProfiler of Millipore Corporation (285 kinases). […] The KINOMEscan assay has been described in detail in Fabian et al., Nat. Biotechnol. 23: 329 (2005) and Karaman et al., Nat. Biotechnol. 26: 127 (2008).
The KinomeScan assay is based on a competition binding assay that quantitatively measures the ability of a compound to compete with an immobilized, ATP site directed ligand. The assay is performed by combining three components: DNA-tagged kinase; immobilized ligand; and a test compound. The ability of the test compound to compete with the immobilized ligand is measured via quantitative PCR of the DNA tag. […] The CDKs tested by Millipore for inhibition with SNX14 included CDK1, CDK2, CDK3, CDK5, CDK7 and CDK9; none of these were inhibited to less than 49 percent of control (POC) activity. The CDKs tested by KinomeScan for the effect of Compound 1 included CDK2, CDK3, CDK4, CDK5, CDK7, CDK8, CDK9 and CDK19; aside from CDK8 and CDK19, the strongest inhibited CDK was CDK7 (33% POC binding). […] We have also determined the binding constant (Kd) for SNX14, compound 1, compound 20, compound 26, compound 43 and compound 14 in kinase assays for CDK8 and CDK19 (Table 1).

[1] = test system: irradiated, senescent WI38 fibroblasts; assay: Paracrine antiapoptotic activity of irradiated, senescent WI38 fibroblasts (survival of C8 cells in low serum); format: cell-based; details: C8 cell luciferase, 0.5% serum
Excerpt: As discussed by Roninson (Cancer Lett. 179, 1-14, 2002), all the treatments known to induce the production of tumor-promoting secreted factors by cancer-associated stromal fibroblasts activate the CDKI pathway, including exposure to ionizing radiation and the induction of senescence. Since this pathway is the target of compounds according to the invention, such compounds may be the first agents to target tumor-supporting activities of cancer-associated fibroblasts. Some of the fibroblast-activating treatments include exposure to ionizing radiation and the induction of senescence through various means (Krtolica et al., Proc. Natl. Acad. Sci. USA 98, 12072, 2001). We have adopted a 96-well assay for anti-apoptotic activity that we have previously used with p21-expressing fibrosarcoma cells (Chang et al., Proc. Natl. Acad. Sci. USA 97, 4291-4296, 2000), to measure a tumor-promoting activity of normal proliferating fibroblasts and fibroblasts exposed to ionizing radiation and consequently developing the senescent phenotype. In this assay, WI38 fibroblasts are irradiated with 10 Gy using an MDS Nordion Gammacell 40 irradiator, or left unirradiated. […] On day 7, cells are lysed and the amount of luciferase activity associated with C8 cells is determined. […]

RIOK2 = biological target: T1, RIOK2 (Homo sapiens, UniProt Q9BVS4); assay: KinomeScan competition binding assay; details: 10 μM compound
T1 construct: purchased KinomeScan, a division of Ambit Biosciences
T1 sequence (Q9BVS4 whole entry): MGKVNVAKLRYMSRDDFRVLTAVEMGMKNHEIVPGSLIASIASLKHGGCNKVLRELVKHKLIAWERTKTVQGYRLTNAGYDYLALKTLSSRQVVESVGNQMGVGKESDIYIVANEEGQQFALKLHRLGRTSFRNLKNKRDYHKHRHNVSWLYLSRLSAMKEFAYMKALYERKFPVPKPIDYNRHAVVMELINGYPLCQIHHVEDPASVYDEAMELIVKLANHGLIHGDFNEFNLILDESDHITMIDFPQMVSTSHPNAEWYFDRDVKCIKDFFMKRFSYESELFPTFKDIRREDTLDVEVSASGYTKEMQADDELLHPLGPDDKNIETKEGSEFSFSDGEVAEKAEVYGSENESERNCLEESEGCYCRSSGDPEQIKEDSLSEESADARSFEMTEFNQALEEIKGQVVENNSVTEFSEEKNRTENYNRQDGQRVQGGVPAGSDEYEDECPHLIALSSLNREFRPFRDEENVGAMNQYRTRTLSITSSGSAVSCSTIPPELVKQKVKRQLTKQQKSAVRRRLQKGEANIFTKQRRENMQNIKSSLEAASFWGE
Procedure: (§1) The KINOMEscan assay has been described in detail in Fabian et al., Nat. Biotechnol. 23: 329 (2005) and Karaman et al., Nat. Biotechnol. 26: 127 (2008).
(§2) The KinomeScan assay is based on a competition binding assay that quantitatively measures the ability of a compound to compete with an immobilized, ATP site directed ligand. The assay is performed by combining three components: DNA-tagged kinase; immobilized ligand; and a test compound. The ability of the test compound to compete with the immobilized ligand is measured via quantitative PCR of the DNA tag.

PIM2 = biological target: T2, PIM2 (Homo sapiens, UniProt Q9P1W9); assay: KinomeScan competition binding assay; details: 10 μM compound
T2 construct: purchased KinomeScan, a division of Ambit Biosciences
T2 sequence (Q9P1W9 whole entry): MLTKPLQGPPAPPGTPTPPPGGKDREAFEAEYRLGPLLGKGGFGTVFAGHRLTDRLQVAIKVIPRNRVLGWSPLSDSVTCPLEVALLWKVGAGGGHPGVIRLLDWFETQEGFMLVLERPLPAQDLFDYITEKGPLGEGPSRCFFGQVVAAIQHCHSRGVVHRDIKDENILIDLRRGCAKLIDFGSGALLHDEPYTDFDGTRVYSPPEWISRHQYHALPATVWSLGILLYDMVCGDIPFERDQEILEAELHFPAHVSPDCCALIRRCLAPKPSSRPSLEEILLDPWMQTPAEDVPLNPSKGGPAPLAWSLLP
Procedure: as §1, §2

JNK1 = biological target: T3, JNK1 (Homo sapiens, UniProt P45983); assay: KinomeScan competition binding assay; details: 10 μM compound
T3 construct: purchased KinomeScan, a division of Ambit Biosciences
T3 sequence (P45983 whole entry): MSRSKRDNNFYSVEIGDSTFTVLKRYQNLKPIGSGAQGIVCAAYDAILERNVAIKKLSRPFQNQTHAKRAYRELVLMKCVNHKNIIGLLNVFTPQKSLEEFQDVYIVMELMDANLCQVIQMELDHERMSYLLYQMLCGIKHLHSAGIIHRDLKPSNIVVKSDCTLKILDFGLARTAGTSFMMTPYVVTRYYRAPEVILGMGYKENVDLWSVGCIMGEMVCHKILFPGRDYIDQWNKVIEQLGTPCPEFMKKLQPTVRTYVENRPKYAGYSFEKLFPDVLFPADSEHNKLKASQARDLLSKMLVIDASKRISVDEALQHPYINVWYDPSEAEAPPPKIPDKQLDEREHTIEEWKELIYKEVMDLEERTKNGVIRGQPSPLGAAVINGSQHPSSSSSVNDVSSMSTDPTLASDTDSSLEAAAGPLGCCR
Procedure: as §1, §2

PKACa = biological target: T4, PKACa (Homo sapiens, UniProt P17612); assay: KinomeScan competition binding assay; details: 10 μM compound
T4 construct: purchased KinomeScan, a division of Ambit Biosciences
Procedure: as §1, §2

MET = biological target: T5, MET (Homo sapiens, UniProt P08581); assay: KinomeScan competition binding assay; details: 10 μM compound
T5 construct: purchased KinomeScan, a division of Ambit Biosciences
T5 sequence (P08581 25-1390): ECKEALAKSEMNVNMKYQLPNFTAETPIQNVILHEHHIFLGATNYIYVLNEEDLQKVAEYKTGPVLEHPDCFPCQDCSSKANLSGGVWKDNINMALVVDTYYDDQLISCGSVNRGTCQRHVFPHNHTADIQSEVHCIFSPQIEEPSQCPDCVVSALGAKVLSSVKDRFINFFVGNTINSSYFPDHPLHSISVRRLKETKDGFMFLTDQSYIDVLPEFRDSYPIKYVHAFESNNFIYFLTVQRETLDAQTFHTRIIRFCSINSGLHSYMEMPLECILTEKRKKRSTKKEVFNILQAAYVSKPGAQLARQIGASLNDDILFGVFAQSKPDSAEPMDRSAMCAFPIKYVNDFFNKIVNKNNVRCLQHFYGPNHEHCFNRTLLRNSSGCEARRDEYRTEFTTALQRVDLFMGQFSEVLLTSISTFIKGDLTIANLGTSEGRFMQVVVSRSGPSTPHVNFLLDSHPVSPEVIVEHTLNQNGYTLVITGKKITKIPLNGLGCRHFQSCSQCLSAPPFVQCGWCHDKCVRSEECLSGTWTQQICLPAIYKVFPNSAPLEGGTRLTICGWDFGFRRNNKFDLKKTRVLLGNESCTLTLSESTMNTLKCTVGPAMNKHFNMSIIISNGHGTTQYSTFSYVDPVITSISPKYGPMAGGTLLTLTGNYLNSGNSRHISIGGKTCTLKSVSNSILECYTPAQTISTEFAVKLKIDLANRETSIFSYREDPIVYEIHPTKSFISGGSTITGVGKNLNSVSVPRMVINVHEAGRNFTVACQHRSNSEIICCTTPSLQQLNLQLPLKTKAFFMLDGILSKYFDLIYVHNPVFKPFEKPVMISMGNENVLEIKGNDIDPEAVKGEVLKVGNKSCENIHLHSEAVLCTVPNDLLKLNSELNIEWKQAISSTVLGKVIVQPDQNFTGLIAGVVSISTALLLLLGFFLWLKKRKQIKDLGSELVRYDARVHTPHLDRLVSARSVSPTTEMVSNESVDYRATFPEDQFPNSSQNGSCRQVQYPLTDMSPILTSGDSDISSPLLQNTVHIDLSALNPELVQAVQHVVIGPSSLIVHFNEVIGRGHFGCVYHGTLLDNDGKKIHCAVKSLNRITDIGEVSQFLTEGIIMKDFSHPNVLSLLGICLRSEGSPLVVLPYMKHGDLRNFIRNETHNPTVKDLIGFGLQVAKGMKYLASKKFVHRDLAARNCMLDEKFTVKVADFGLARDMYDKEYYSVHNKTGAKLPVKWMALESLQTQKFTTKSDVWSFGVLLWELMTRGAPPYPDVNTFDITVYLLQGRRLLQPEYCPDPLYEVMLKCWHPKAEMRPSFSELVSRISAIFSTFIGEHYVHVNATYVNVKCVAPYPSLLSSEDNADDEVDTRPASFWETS
Procedure: as §1, §2

PKACb = biological target: T6, PKACb (Homo sapiens, UniProt P22694); assay: KinomeScan competition binding assay; details: 10 μM compound
T6 construct: purchased KinomeScan, a division of Ambit Biosciences
Procedure: as §1, §2

ROCK2 = biological target: T7, ROCK2 (Homo sapiens, UniProt O75116); assay: KinomeScan competition binding assay; details: 10 μM compound
T7 construct: purchased KinomeScan, a division of Ambit Biosciences
T7 sequence (O75116 whole entry): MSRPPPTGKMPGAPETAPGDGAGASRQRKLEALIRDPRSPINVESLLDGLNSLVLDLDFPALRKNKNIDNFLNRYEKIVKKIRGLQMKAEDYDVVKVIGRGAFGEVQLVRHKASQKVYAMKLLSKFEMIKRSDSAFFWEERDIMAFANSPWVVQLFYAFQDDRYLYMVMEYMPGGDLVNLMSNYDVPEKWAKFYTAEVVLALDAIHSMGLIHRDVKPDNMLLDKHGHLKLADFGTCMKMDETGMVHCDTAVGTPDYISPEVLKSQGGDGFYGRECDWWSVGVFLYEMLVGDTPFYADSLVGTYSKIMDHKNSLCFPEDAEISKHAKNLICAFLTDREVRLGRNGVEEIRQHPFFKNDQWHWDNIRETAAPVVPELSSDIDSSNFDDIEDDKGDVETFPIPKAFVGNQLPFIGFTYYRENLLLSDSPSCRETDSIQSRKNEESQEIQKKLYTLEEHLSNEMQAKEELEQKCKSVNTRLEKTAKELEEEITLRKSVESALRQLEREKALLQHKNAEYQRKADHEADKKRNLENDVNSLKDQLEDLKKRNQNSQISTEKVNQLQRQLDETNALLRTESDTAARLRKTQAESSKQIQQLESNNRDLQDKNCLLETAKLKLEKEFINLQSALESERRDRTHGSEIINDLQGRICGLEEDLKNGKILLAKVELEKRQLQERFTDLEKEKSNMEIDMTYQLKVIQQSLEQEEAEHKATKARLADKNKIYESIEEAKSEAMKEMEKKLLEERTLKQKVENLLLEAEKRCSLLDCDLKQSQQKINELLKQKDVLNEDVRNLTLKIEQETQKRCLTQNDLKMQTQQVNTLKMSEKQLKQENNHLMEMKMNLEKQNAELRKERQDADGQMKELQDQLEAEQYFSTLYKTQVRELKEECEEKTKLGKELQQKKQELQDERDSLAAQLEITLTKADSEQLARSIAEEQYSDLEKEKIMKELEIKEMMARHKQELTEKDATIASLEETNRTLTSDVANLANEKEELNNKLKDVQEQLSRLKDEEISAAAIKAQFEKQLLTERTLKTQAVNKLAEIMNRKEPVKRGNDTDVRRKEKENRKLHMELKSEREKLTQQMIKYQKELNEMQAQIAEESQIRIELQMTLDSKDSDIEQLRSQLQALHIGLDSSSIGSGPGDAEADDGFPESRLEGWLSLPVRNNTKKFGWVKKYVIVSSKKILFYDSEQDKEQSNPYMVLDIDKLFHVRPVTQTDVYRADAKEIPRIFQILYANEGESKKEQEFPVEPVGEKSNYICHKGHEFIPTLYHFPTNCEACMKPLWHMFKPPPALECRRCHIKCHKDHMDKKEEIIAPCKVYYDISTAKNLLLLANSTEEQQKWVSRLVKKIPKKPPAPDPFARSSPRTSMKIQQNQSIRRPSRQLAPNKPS
Procedure: as §1, §2

PRKG2 = biological target: T8, PRKG2 (Homo sapiens, UniProt Q13237); assay: KinomeScan competition binding assay; details: 10 μM compound
T8 construct: purchased KinomeScan, a division of Ambit Biosciences
T8 sequence (Q13237 whole entry): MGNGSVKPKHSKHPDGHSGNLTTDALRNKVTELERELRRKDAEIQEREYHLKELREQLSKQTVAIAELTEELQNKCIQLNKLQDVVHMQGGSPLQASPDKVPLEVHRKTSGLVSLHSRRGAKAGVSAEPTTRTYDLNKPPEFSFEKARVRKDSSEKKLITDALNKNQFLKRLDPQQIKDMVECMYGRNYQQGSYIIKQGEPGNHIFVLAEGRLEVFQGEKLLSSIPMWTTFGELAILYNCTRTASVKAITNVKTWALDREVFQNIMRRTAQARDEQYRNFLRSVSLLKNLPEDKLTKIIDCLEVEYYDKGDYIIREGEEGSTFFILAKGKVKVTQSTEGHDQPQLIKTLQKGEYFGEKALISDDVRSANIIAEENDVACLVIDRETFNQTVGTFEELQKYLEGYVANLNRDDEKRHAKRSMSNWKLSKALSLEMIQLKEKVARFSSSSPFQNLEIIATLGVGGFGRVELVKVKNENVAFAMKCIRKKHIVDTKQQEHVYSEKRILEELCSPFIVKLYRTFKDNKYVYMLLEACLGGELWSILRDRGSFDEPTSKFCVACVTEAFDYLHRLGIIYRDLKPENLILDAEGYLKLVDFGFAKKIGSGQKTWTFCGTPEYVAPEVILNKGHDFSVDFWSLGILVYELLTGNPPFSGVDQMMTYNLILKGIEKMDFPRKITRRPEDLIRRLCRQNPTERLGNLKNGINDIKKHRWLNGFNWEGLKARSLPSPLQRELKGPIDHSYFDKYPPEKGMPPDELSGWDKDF
Procedure: as §1, §2

ROCK1 = biological target: T9, ROCK1 (Homo sapiens, UniProt Q13464); assay: KinomeScan competition binding assay; details: 10 μM compound
T9 construct: purchased KinomeScan, a division of Ambit Biosciences
Procedure: as §1, §2

HUVECs = assay: HUVEC proliferation, 3-day MTT assay; format: cell-based, human
C26 = assay: Colon carcinoma cell proliferation, FACS count of live cells; format: cell-based, murine; details: 72 hrs, 2.5, 5 or 10 μM
Procedure: Inhibition of β-catenin, which is positively regulated by CDK8, was reported to inhibit proliferation of some colon carcinoma cell lines (Firestein et al., 2008). We have therefore determined the ability of compound 1 to inhibit the proliferation of several colon carcinoma cell lines, including human DLD1, HCT116, SW480 and murine C26. This analysis waqs carried out by incubating cells for 72 hrs in the presence of 0, 2.5, 5 or 10 μM compound 1, followed by FACS measurement of the number of live cells, as defined by the lack of uptake of membrane-impermeable dye propidium iodide.

N#Cc1ccc2ncnc(NCCc3ccccc3)c2c1 [compound 1]
POC binding, CDK7 (CDK7): 33 % POC | decrease of paracrine tumor-promoting (antiapoptotic) effect of irradiated/senescent fibroblasts [1]: ~3 fold | IC50 KB-3-1 relative to IC50 for HUVEC cells (KB-3-1 carcinoma cells): 4.3 fold | pIC50 (KB-3-1 carcinoma cells; read-out: IC50, KB-3-1 proliferation, 3-day MTT): 4.35 | POC binding, RIOK2 (RIOK2): 23 POC | POC binding, PIM2 (PIM2): 52 POC | POC binding, JNK1 (JNK1): 45 POC | POC binding, PKACa (PKACa): 82 POC | POC binding, MET (MET): 86 POC | POC binding, PKACb (PKACb): 89 POC | POC binding, ROCK2 (ROCK2): 89 POC | POC binding, PRKG2 (PRKG2): 85 POC | POC binding, ROCK1 (ROCK1): 79 POC | effect on HUVEC cell number relative to untreated control (HUVECs; 0.625 or 1.25 μM): little or no effect | pIC50 (HUVECs; 3-day MTT): 4.98 | growth of colon carcinoma cell line (C26): inhibited the growth
